Results taken from paper PMC6403188, “Species-Specific Structural Requirements of Alpha-Branched Trehalose Diester Mincle Agonists” (Frontiers in Immunology, 2019).

Legend:
Format in all cases: cell-based
human Mincle = target: T1, human Mincle (Homo sapiens, UniProt Q9ULY5); experiment: HEK cells expressing human Mincle with NF-κB-driven SEAP reporter; conditions: average calculated EC50, n = 3; plate-coated compound, 24 h; read-out: hMincle EC50 (converted)
T1 construct: host or cells: HEK (HEK-Blue) cells with NF-κB-driven SEAP reporter
T1 sequence (Q9ULY5 1-219): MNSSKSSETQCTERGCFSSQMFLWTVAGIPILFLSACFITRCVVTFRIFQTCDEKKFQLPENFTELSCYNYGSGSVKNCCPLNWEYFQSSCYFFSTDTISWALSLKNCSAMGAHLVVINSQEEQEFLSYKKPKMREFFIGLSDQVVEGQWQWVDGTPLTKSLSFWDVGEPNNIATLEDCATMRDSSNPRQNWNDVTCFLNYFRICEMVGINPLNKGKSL
Method: (§1) Human and mouse Mincle expressing HEK cells were obtained from Invivogen (San Diego, CA). Cells were cultured according to the manufactures instructions in DMEM with 10% FBS, 50 U/ml penicillin, […] streptomycin, […] Normocin, 2 mM L-glutamine, 30 μg/ml blasticidin, 1 μg/ml puromycin and 1x HEK-Blue™ CLR Selection. For assay, indicated compounds were serially diluted in diluent (50%IPA/50% isooctane), 20 μl of a 10x final concentration were applied to the bottom of a 96-well tissue culture plate and the solvent was evaporated for >1 h in a biosafety hood. HEK cells were applied to the plates at a density of 3 × 10^5 cells/well and incubated for 18–24 h at 37°C. Cell supernatants were harvested and analyzed via the manufacturer's instructions using Hek-Blue^TM Detection. SEAP activity was assessed by reading the optical density (OD) at 620–655 nm with a microplate reader; data are expressed as the fold change in OD over vehicle treated cells.
(§2) To investigate the capacity of these molecules to bind to and activate the Mincle receptor, we used human embryonic kidney (HEK) cells expressing the human or mouse Mincle receptor along with an NF-κB-driven secreted embryonic alkaline phosphatase (SEAP) reporter. Many of the αTDE compounds were able to induce production of SEAP in a dose dependent manner (Figure 2). HEK null cells (HEK cells containing the NF-kB reporter without Mincle receptor) were used as a negative controls to confirm the receptor specificity of the compounds in HEK cells expressing human or mouse Mincle reporter (Supplemental Figure 4). […] The relative activity of TDM and TDB in the human and mouse HEK cells is consistent with the results reported by others ([20]). […] This synthetic version is a shorter chain version of the lipid-derived one reported to be “human-specific” ([28]).
(§3) Figure 2 Activation of human or mouse Mincle in response to synthetic αTDE compounds. The indicated compounds were dissolved in 50% isopropanol/isooctane, serially diluted in vehicle and then dried to the bottom of a tissue culture plate. HEK cells transfected with human (A–C) or mouse (D–F) Mincle and an NF-κB-driven SEAP reporter were incubated with the compounds for 24 h followed by assessment of the supernatants for SEAP levels. Data are represented as fold change in OD650 over vehicle treated cells. Graphs are mean values from three independent experiments ± SEM. Table in (G) represents the average calculated EC50 and average max SEAP value (± SD, n = 3) for each compound in each cell line. […]

mouse Mincle = target: T2, mouse Mincle (Mus musculus, UniProt Q9R0Q8); experiment: HEK cells expressing mouse Mincle with NF-κB-driven SEAP reporter; conditions: average calculated EC50, n = 3; plate-coated compound, 24 h; read-out: mMincle EC50 (converted)
T2 construct: host or cells: HEK (HEK-Blue) cells with NF-κB-driven SEAP reporter
T2 sequence (Q9R0Q8 1-214): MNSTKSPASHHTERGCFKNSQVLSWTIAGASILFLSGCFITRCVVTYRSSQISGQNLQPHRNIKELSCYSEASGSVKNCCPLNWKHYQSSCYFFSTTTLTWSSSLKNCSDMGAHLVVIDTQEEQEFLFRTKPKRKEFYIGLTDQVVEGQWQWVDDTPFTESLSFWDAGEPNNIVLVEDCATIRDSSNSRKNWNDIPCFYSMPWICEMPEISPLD
Method: as §1, §2, §3

[1] = system: Hek Blue human or mouse Mincle-expressing cells; conditions: top concentrations, 24 h; compared with vehicle only-treated cells

Row | SMILES | EC50 (human Mincle) [nM] | EC50 (mouse Mincle) [nM] | Cell viability of Mincle HEK cells [1]
1 | CCCCCCCCCCC(CCCCCCCCCC)C(=O)OC[C@H]1O[C@H](O[C@H]2O[C@H](COC(=O)C(CCCCCCCCCC)CCCCCCCCCC)[C@@H](O)[C@H](O)[C@H]2O)[C@H](O)[C@@H](O)[C@@H]1O [Compound B22] | 322 | 689 | less substantial decreases
2 | CCCCCCCCC(CCCCCCCC)C(=O)OC[C@H]1O[C@H](O[C@H]2O[C@H](COC(=O)C(CCCCCCCC)CCCCCCCC)[C@@H](O)[C@H](O)[C@H]2O)[C@H](O)[C@@H](O)[C@@H]1O [Compound B18] | 405 | 599 | less substantial decreases
3 | CCCCCCCCCCCCCCCC(CCCCCCCCCCCCCCC)C(=O)OC[C@H]1O[C@H](O[C@H]2O[C@H](COC(=O)C(CCCCCCCCCCCCCCC)CCCCCCCCCCCCCCC)[C@@H](O)[C@H](O)[C@H]2O)[C@H](O)[C@@H](O)[C@@H]1O [Compound B32] | 50.2 | 64.4 | 
4 | CCCCCCCCCC(CCCCCCCCC)C(=O)OC[C@H]1O[C@H](O[C@H]2O[C@H](COC(=O)C(CCCCCCCCC)CCCCCCCCC)[C@@H](O)[C@H](O)[C@H]2O)[C@H](O)[C@@H](O)[C@@H]1O [Compound B20] | 128 | 328 | less substantial decreases
5 | CCCCCCCCCCCCCCC(CCCCCCCCCCCCCC)C(=O)OC[C@H]1O[C@H](O[C@H]2O[C@H](COC(=O)C(CCCCCCCCCCCCCC)CCCCCCCCCCCCCC)[C@@H](O)[C@H](O)[C@H]2O)[C@H](O)[C@@H](O)[C@@H]1O [Compound B30] | 43.8 | 955 | 
6 | CCCCCCCCCCCCCC(CCCCCCCCCCCCC)C(=O)OC[C@H]1O[C@H](O[C@H]2O[C@H](COC(=O)C(CCCCCCCCCCCCC)CCCCCCCCCCCCC)[C@@H](O)[C@H](O)[C@H]2O)[C@H](O)[C@@H](O)[C@@H]1O [Compound B28] | 77.4 | 592 | 
7 | CCCCCCCCCCCC(CCCCCCCCCCC)C(=O)OC[C@H]1O[C@H](O[C@H]2O[C@H](COC(=O)C(CCCCCCCCCCC)CCCCCCCCCCC)[C@@H](O)[C@H](O)[C@H]2O)[C@H](O)[C@@H](O)[C@@H]1O [Compound B24] | 92.6 | 608 | less substantial decreases
8 | CCCCCC(CCCCC)C(=O)OC[C@H]1O[C@H](O[C@H]2O[C@H](COC(=O)C(CCCCC)CCCCC)[C@@H](O)[C@H](O)[C@H]2O)[C@H](O)[C@@H](O)[C@@H]1O [Compound B12] |  | 1260 | marked decreases in viability
9 | CCCCCCC(CCCCCC)C(=O)OC[C@H]1O[C@H](O[C@H]2O[C@H](COC(=O)C(CCCCCC)CCCCCC)[C@@H](O)[C@H](O)[C@H]2O)[C@H](O)[C@@H](O)[C@@H]1O [Compound B14] |  | 1520 | less substantial decreases
10 | CCCCCCCCCCCCCCCCCC(CCCCCCCCCCCCCCCCC)C(=O)OC[C@H]1O[C@H](O[C@H]2O[C@H](COC(=O)C(CCCCCCCCCCCCCCCCC)CCCCCCCCCCCCCCCCC)[C@@H](O)[C@H](O)[C@H]2O)[C@H](O)[C@@H](O)[C@@H]1O [Compound B36] | 21400 | 25800 | 
